Values of other authors in patent US20240156825A1, “USE OF SELECTIVE VEGFR2 AND FGFR1 INHIBITORS” (Fountain Therapeutics Inc., priority 2022, published 2024).
pIC50: −log10 of the molar value. Read-outs that look alike come from different tables or passages of the source.

How the values were obtained:
any gene target = conditions: next lowest IC50 value to any gene target, read-out: Min IC50_μM, cited from earlier work
VEGFR2 = VEGFR2 (Homo sapiens, UniProt P35968); conditions: reported IC50 to VEGFR2, read-out: VEGFR2 IC50_μM, cited from earlier work
Sequence of VEGFR2 (P35968 20-1356, species assumed): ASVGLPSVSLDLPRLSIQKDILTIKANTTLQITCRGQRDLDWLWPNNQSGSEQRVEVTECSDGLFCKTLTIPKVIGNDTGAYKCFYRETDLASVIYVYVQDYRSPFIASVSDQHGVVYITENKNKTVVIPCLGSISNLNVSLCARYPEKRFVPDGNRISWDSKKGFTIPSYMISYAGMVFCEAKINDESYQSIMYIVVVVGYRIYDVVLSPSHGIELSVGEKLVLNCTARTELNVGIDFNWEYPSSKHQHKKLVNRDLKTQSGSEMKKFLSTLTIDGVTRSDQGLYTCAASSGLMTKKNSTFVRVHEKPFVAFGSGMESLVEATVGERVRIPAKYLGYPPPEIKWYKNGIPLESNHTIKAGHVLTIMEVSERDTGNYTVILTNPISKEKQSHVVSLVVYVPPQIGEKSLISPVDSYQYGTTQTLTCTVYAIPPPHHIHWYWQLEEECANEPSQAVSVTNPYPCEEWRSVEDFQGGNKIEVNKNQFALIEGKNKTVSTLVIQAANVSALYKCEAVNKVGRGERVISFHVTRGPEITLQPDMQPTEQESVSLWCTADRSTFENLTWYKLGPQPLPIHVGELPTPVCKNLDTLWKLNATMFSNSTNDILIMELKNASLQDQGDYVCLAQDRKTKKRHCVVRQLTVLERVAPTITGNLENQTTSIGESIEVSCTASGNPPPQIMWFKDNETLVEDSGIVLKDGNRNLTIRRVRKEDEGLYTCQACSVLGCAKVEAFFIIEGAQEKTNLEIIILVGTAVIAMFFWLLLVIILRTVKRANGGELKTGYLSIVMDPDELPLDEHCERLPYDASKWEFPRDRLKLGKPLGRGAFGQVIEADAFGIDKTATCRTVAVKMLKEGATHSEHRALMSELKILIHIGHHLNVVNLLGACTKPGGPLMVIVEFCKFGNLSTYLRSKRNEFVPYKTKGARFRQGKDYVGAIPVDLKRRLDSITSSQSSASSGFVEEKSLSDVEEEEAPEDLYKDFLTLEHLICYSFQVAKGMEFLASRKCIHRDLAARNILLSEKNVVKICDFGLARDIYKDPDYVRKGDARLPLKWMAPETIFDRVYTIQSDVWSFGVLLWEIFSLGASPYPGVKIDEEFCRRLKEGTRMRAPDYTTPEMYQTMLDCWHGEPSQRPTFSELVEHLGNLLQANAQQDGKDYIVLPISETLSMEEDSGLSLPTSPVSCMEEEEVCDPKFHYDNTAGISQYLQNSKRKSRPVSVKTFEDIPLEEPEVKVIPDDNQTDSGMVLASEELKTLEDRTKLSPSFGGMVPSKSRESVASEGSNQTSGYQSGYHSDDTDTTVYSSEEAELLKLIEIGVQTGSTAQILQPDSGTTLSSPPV

[1] = Table 3, selective inhibitors of VEGFR2

C[C@@H](Nc1ncnc2[nH]c(-c3ccc(CNCCCCCC(=O)NO)cc3)cc12)c1ccccc1 [compound 24900643]
pIC50 (any gene target): 7.00 | pIC50 (VEGFR2): 7.00

O=C(CCCCCN1CCN(Cc2ccc(-c3cc4c(NCc5ccccc5)ncnc4[nH]3)cc2)CC1)NO [compound 24900714]
pIC50 (any gene target; Table 3): 7.00 | pIC50 (VEGFR2; [1]): 7.00

C[C@@H](Nc1ncnc2[nH]c(-c3ccc(C(=O)NO)cc3)cc12)c1ccccc1 [compound 24900715]
pIC50 (any gene target; Table 3): 7.00 | pIC50 (VEGFR2; [1]): 7.00

C[C@@H](Nc1ncnc2[nH]c(-c3ccc(C(=O)NO)cc3)cc12)c1ccc(F)cc1 [compound 24900772]
pIC50 (any gene target; Table 3): 7.00 | pIC50 (VEGFR2; [1]): 7.00

Cc1nn(C)c2cc(N(C)c3ccnc(Nc4cccc(S(N)(=O)=O)c4)n3)ccc12 [compound 24949545]
pIC50 (any gene target): 6.00 | pIC50 (VEGFR2): 7.44

CN(c1ccc2cn(C)nc2c1)c1ccnc(Nc2cccc(S(N)(=O)=O)c2)n1 [compound 24949548]
pIC50 (any gene target): 5.54 | pIC50 (VEGFR2): 8.12

Cc1c2ccc(N(C)c3ccnc(Nc4cccc(S(N)(=O)=O)c4)n3)cc2nn1C [compound 24949700]
pIC50 (any gene target): 5.85 | pIC50 (VEGFR2): 8.25

Cc1nc2ccc(N(C)c3ccnc(Nc4cccc(S(N)(=O)=O)c4)n3)cc2n1C [compound 24949704]
pIC50 (any gene target): 5.77 | pIC50 (VEGFR2): 7.20

O=C(CCCCCCCNC(=O)c1cc(Oc2ccc(NC(=O)Nc3ccc(Cl)c(C(F)(F)F)c3)cc2)ccn1)NO [compound 25071593]
pIC50 (any gene target): 7.00 | pIC50 (VEGFR2): 7.00

O=C(CCCCCCNCc1cc(Oc2ccc(NC(=O)Nc3ccc(Cl)c(C(F)(F)F)c3)cc2)ccn1)NO [compound 25072217]
pIC50 (any gene target): 7.00 | pIC50 (VEGFR2): 7.00

O=C(CCCCCCCNCc1cc(Oc2ccc(NC(=O)Nc3ccc(Cl)c(C(F)(F)F)c3)cc2)ccn1)NO [compound 25072218]
pIC50 (any gene target): 7.00 | pIC50 (VEGFR2): 7.00

CSc1cn2c(-c3cn[nH]c3)cnc2c(Nc2cc(C)ns2)n1 [compound 25094210]
pIC50 (any gene target): 6.78 | pIC50 (VEGFR2): 7.44

Cc1cn2c(-c3cn[nH]c3)cnc2c(Nc2cc(CN3CCCCC3)ns2)n1 [compound 25144294]
pIC50 (any gene target): 7.92 | pIC50 (VEGFR2): 8.40

CN(c1ccc(F)c(NC(=O)c2cccc(OC(C)(C)C#N)c2Cl)c1)c1ccc2nc(NC(=O)C3CC3)sc2n1 [compound 25206346]
pIC50 (any gene target): 7.64 | pIC50 (VEGFR2): 8.92

CCN1CCN(Cc2ccc(NC(=O)c3ccc(C)c(NC(=O)c4cncc(-c5cccs5)c4)c3)cc2C(F)(F)F)CC1 [compound 42628503]
pIC50 (any gene target; Table 3): 6.30 | pIC50 (VEGFR2; [1]): 6.30

O=C(Nc1cccc(-c2cncc3ccccc23)c1)c1ccccc1NCc1ccncc1 [compound 44368815]
pIC50 (any gene target): 7.28 | pIC50 (VEGFR2): 8.94

c1cnc(NCc2ccncc2)c(-c2nnc(Nc3ccc4c(c3)OCCO4)o2)c1 [compound 44408215]
pIC50 (any gene target): 4.52 | pIC50 (VEGFR2): 6.77

CNC(=O)Nc1ccc(CNc2ncsc2C(=O)Nc2ccc3c(c2)OC(F)(F)O3)cn1 [compound 44442418]
pIC50 (any gene target): 8.30 | pIC50 (VEGFR2): 8.52

CO/N=C(\C)c1ccc2c(c1)c1c3c(c4c(c1n2CC(C)C)CCc1nn(C)cc1-4)C(=O)NC3 [compound 44447890]
pIC50 (any gene target): 8.10 | pIC50 (VEGFR2): 8.40

c1ccc2sc(-c3ccc(Nc4ncnc5[nH]ccc45)cc3)nc2c1 [compound 44564789]
pIC50 (any gene target): 5.89 | pIC50 (VEGFR2): 5.92

CC1(C)CC(NC(=O)c2cccc(-c3cc4nccc(Nc5cccc(O)c5)n4n3)c2)CC(C)(C)N1[O] [compound 46179972]
pIC50 (any gene target): 8.30 | pIC50 (VEGFR2): 8.48

O=C(Nc1ccccc1)Nc1ccc2c(c1)NC(=O)/C2=C\c1ccc[nH]1 [compound 46182735]
pIC50 (any gene target): 8.64 | pIC50 (VEGFR2): 9.00

COc1cc2c(Nc3ccc(-c4nc5ccccc5s4)cc3)ncnc2cc1OCCCN1CCN(C)CC1 [compound 46225612]
pIC50 (any gene target): 7.85 | pIC50 (VEGFR2): 7.92

COc1cc(C2=C(c3c[nH]c4ccc(I)cc34)C(=O)NC2=O)cc(OC)c1OC [compound 46231220]
pIC50 (any gene target): 7.53 | pIC50 (VEGFR2): 7.60

Cc1ccc(C(=O)Nc2cccc(C(F)(F)F)c2)cc1Nc1nc2ccccc2n1-c1cc(NCCC#N)ncn1 [compound 46879446]
pIC50 (any gene target): 6.56 | pIC50 (VEGFR2): 6.61

CCNC(=O)Nc1ccc(Oc2ncccc2-c2ccnc(NC)n2)c2ccccc12 [compound 46890315]
pIC50 (any gene target): 6.89 | pIC50 (VEGFR2): 7.32

COc1ccc(NC(=O)Nc2ccc3c(c2)NC(=O)/C3=C\c2[nH]cc(C(=O)O)c2C)cc1 [compound 46898039]
pIC50 (any gene target; Table 3): 9.30 | pIC50 (VEGFR2; [1]): 9.30

COc1cc2c(Nc3cc(O)c(C)cc3F)ncnc2cc1OCC1CCN(C)CC1 [compound 49860186]
pIC50 (any gene target): 7.60 | pIC50 (VEGFR2): 8.15

COc1cc2c(Nc3ccc(Br)cc3F)ncnc2cc1OCCCN1CCN(C)CC1 [compound 49860190]
pIC50 (any gene target): 7.52 | pIC50 (VEGFR2): 8.05

CCN(Cc1cc(Nc2nc(C)cn3c(-c4cn[nH]c4)cnc23)sn1)C(C)(C)CO [compound 53317913]
pIC50 (any gene target; Table 3): 9.00 | pIC50 (VEGFR2; [1]): 9.00

COc1cc(O)c2c(c1)CCC[C@H](O)CC(=O)/C=C\C[C@H](C)OC2=O [compound 53324451]
pIC50 (any gene target): 8.14 | pIC50 (VEGFR2): 8.24

COc1cc2c(Nc3cc(Cl)c(Cl)cc3F)ncnc2cc1OC[C@@H]1CN2CCC[C@H]2CO1 [compound 53630919]
pIC50 (any gene target; Table 3): 7.30 | pIC50 (VEGFR2; [1]): 7.30

COc1cc2c(Nc3ccc(Cl)c(Cl)c3F)ncnc2cc1OC[C@@H]1CN2CCC[C@H]2C(=O)N1C [compound 53630920]
pIC50 (any gene target; Table 3): 7.30 | pIC50 (VEGFR2; [1]): 7.30

COc1cc2c(Nc3ccc(Cl)c(Cl)c3F)ncnc2cc1OC[C@@H]1CN2CCC[C@H]2C(=O)N1 [compound 53630923]
pIC50 (any gene target; Table 3): 7.30 | pIC50 (VEGFR2; [1]): 7.30

COc1cc2c(Nc3ccc(Cl)c(Cl)c3F)ncnc2cc1OC[C@@H]1CN2CCC[C@@H]2C(=O)N1 [compound 53630924]
pIC50 (any gene target; Table 3): 7.30 | pIC50 (VEGFR2; [1]): 7.30

COc1cc2c(Nc3ccc(Cl)c(Cl)c3)ncnc2cc1OCc1nc2c(s1)CNCC2 [compound 53630967]
pIC50 (any gene target; Table 3): 7.30 | pIC50 (VEGFR2; [1]): 7.30

COc1cc2c(Nc3ccc(Cl)c(Cl)c3)ncnc2cc1OCc1csc(C2CCNCC2)n1 [compound 53630972]
pIC50 (any gene target; Table 3): 7.30 | pIC50 (VEGFR2; [1]): 7.30

CN1CCC(COc2ccc3c(Nc4ccc(NC(=O)Nc5cccc(F)c5)cc4)ncnc3c2)CC1 [compound 56835147]
pIC50 (any gene target): 8.02 | pIC50 (VEGFR2): 8.26

Nc1c(-c2ccc(F)cc2)c(-c2ccncc2)nn1-c1c(Cl)cc(Cl)cc1Cl [compound 56924694]
pIC50 (any gene target): 7.51 | pIC50 (VEGFR2): 7.54

COc1ccc(-c2cnc3cncc(Nc4ccc(N5CCCCC5)cc4)c3n2)cc1 [compound 57332844]
pIC50 (any gene target): 5.64 | pIC50 (VEGFR2): 5.69

COc1cc2c(Nc3cc(Cl)c(Cl)cc3F)ncnc2cc1OCC1CN(C)CCO1 (centres unmarked) [compound 57802547]
pIC50 (any gene target; Table 3): 7.30 | pIC50 (VEGFR2; [1]): 7.30

COc1cc2c(Nc3ccc(C)c(Br)c3)ncnc2cc1OCC1CN(C)CCO1 (centres unmarked) [compound 57802550]
pIC50 (any gene target; Table 3): 7.30 | pIC50 (VEGFR2; [1]): 7.30

COc1cc2c(Nc3ccc(Cl)c(Cl)c3)ncnc2cc1OCC1CN(S(C)(=O)=O)CCCO1 (centres unmarked) [compound 57802556]
pIC50 (any gene target; Table 3): 7.30 | pIC50 (VEGFR2; [1]): 7.30

COc1cc2c(Nc3ccc(Br)c(F)c3F)ncnc2cc1OCC1CN(C)CCO1 (centres unmarked) [compound 57802560]
pIC50 (any gene target; Table 3): 7.30 | pIC50 (VEGFR2; [1]): 7.30

CCN=C(NC#N)N1CCOC(COc2cc3ncnc(Nc4ccc(Cl)c(Cl)c4)c3cc2OC)C1 (centres unmarked) [compound 57802565]
pIC50 (any gene target; Table 3): 7.30 | pIC50 (VEGFR2; [1]): 7.30

COc1cc2c(Nc3ccc(Br)c(Cl)c3F)ncnc2cc1OCC1CN(C)CCO1 (centres unmarked) [compound 57802566]
pIC50 (any gene target; Table 3): 7.30 | pIC50 (VEGFR2; [1]): 7.30

COc1cc2c(Nc3ccc(Cl)c(Cl)c3F)ncnc2cc1OC[C@@H]1CN(C)CC(=O)N1C [compound 57802574]
pIC50 (any gene target; Table 3): 7.30 | pIC50 (VEGFR2; [1]): 7.30

CC(C)Oc1cc2c(Nc3ccc(Cl)c(Cl)c3)ncnc2cc1OCC1CNCCO1 (centres unmarked) [compound 57802576]
pIC50 (any gene target; Table 3): 7.30 | pIC50 (VEGFR2; [1]): 7.30

COc1cc2c(Nc3ccc(Br)c(Cl)c3Cl)ncnc2cc1OCC1CN(C)C(C)(C)CO1 (centres unmarked) [compound 57802578]
pIC50 (any gene target): 7.30 | pIC50 (VEGFR2): 7.30

COc1cc2c(Nc3ccc(Cl)c(Cl)c3)ncnc2cc1OC[C@@H]1CN2CCC[C@@H]2CO1 [compound 57802582]
pIC50 (any gene target; Table 3): 7.30 | pIC50 (VEGFR2; [1]): 7.30

COc1cc2c(Nc3ccc(Cl)c(Cl)c3C)ncnc2cc1OCC1CN(C)CCO1 (centres unmarked) [compound 57802584]
pIC50 (any gene target; Table 3): 7.30 | pIC50 (VEGFR2; [1]): 7.30

COc1cc2c(Nc3ccc(Cl)c(Cl)c3F)ncnc2cc1OCC1CN(C)CCO1 (centres unmarked) [compound 57802591]
pIC50 (any gene target; Table 3): 7.30 | pIC50 (VEGFR2; [1]): 7.30

COc1cc2c(Nc3cc(Cl)c(Cl)c(Cl)c3)ncnc2cc1OCC1CN(C)CCO1 (centres unmarked) [compound 57802593]
pIC50 (any gene target; Table 3): 7.30 | pIC50 (VEGFR2; [1]): 7.30

COc1cc2c(Nc3ccc(Cl)c(Cl)c3)ncnc2cc1OCC1CN(CC(N)=O)CCO1 (centres unmarked) [compound 57802603]
pIC50 (any gene target; Table 3): 7.30 | pIC50 (VEGFR2; [1]): 7.30

COc1cc2c(Nc3ccc(Cl)c(Cl)c3)ncnc2cc1OCc1nc(N2CCN(C)CC2)no1 [compound 57802605]
pIC50 (any gene target; Table 3): 7.30 | pIC50 (VEGFR2; [1]): 7.30

COc1cc2c(Nc3ccc(Cl)c(Cl)c3)ncnc2cc1OCc1csc(C2CCCN(C)C2)n1 (centres unmarked) [compound 57802607]
pIC50 (any gene target; Table 3): 7.30 | pIC50 (VEGFR2; [1]): 7.30

COc1cc2c(Nc3ccc(Cl)c(Cl)c3)ncnc2cc1OCC1CN(CCCCCC#N)CCO1 (centres unmarked) [compound 57802611]
pIC50 (any gene target; Table 3): 7.30 | pIC50 (VEGFR2; [1]): 7.30

CCN1CCCOC(COc2cc3ncnc(Nc4ccc(Cl)c(Cl)c4)c3cc2OC)C1 (centres unmarked) [compound 57802623]
pIC50 (any gene target; Table 3): 7.30 | pIC50 (VEGFR2; [1]): 7.30

COc1cc2c(Nc3ccc(Cl)c(Cl)c3)ncnc2cc1OCCC1CNC(C)(C)CO1 (centres unmarked) [compound 57802637]
pIC50 (any gene target): 7.30 | pIC50 (VEGFR2): 7.30

COc1cc2c(Nc3ccc(Cl)c(Cl)c3F)ncnc2cc1OC[C@@H]1CN(C)CC(=O)N1 [compound 57802639]
pIC50 (any gene target; Table 3): 7.30 | pIC50 (VEGFR2; [1]): 7.30

COc1cc2c(Nc3ccc(Cl)c(Cl)c3)ncnc2cc1OCC1CC1 [compound 57802643]
pIC50 (any gene target): 7.30 | pIC50 (VEGFR2): 7.30
